Experimental data as given in a melting point compilation (Tetko et al.; mined from patent text by program, amines drawn as free bases though some values may be those of a salt).

Structure (SMILES) | melting point
c1ccc(OCc2ccsc2)cc1 | 49 to 50 °C
O=c1oc2c(c(O)c1C(c1ccccc1)C1CC1)CCCCC2CCC1OCCO1 (configuration not stated) | 68 to 76 °C
CS(=O)(=O)C(=C1CN(C(c2ccccc2)c2ccccc2)C1)c1ccccc1 | 210 °C
CCOC(=O)c1cn(C2CC2)c2c(F)c(F)c(F)c(NCc3ccccc3)c2c1=O | 134 to 135 °C
O=NCNC1=Nc2ccc(Cl)cc2N(c2ccccc2)C(=O)C1 | 121 to 124 °C
Cc1cccc(NC(=O)c2ccc(C(=O)N3Cc4ccccc4Cc4ccccc43)cc2)c1C | 248 to 251 °C
ON1C(c2ccccc2)CC2(CC1c1ccccc1)OCCO2 (configuration not stated) | 161 to 162 °C
CCCc1c(OCC(O)CSc2ccc(CC(=O)O)c(Cl)c2Cl)ccc(C(C)=O)c1O (configuration not stated) | 151 to 153 °C
O=C(NC(Cc1ccc(OCc2ccc(C(F)(F)F)cc2)cc1)C(=O)O)c1cn2ccc(-c3ccc(Cl)cc3)cc2n1 (configuration not stated) | 263 °C
COc1cc(OC)cc(-c2ncoc2-c2ccc(OC)c(O)c2N)c1 | 140 to 143 °C
O=[N+]([O-])c1ccc(Sc2cccc3cnccc23)cc1NCc1ccccc1 | 153 to 154 °C
CCCCc1nc(C)c(CCC(=S)N(C)C)c(=O)n1Cc1ccc(-c2ccccc2-c2nnn[nH]2)cc1 | 76.2 to 81.2 °C
O=C(CN1CCC(Cc2ccc(F)cc2)CC1)Nc1ccc(O)cc1 | 70 to 77 °C
Cc1c(N)c(C(C)C)cc(Cc2cc(C(C)C)c(N)c(C)c2Cl)c1Cl | 118 to 120 °C
Cc1ccc(Nc2ccnc(-n3nc(C)cc3C)n2)cc1 | 52 to 55.6 °C
CC(C)(COC(=O)c1cc(Cl)c(O)c(Cl)c1)Cc1ccc(CC(C)(C)COC(=O)c2cc(Cl)c(O)c(Cl)c2)cc1 | 203 to 204 °C
C=C1CCCCCCCSC[C@@H](C(=O)O)NC1=O | 184 to 186 °C
CCOC(=O)c1cc(-c2ccc(OC)cc2)nn(C(C)C)c1=O | 141 °C
CCOC(=O)c1ccc(NC(=O)C2Cc3cc(SC)ccc3C(=O)CS2)cc1 (configuration not stated) | 236 to 237 °C
Cc1ccccc1Oc1cccc(NC(=O)c2ccn3c2CSC3c2cccnc2)c1 (configuration not stated) | 180 °C
O=C(c1ccccc1)C1CCN(CC2CN(c3ccccc3)C(=O)O2)CC1 (configuration not stated) | 104 to 105 °C

Structure (SMILES) | melting point
CCCCNC1CC(C)(C)N(CCO)C(C)(C)C1 | 106 to 111 °C
O=C(O)[C@H](Cc1c[nH]c2ccccc12)NC(=O)[C@@H]1C[C@H](S)CN1S(=O)(=O)c1ccc2ccccc2c1 | 130 °C
O=C(O)c1ccccc1OCC(F)(F)F | 85 to 86.5 °C
Cc1cccc(Nc2nc(N)ncc2S(=O)(=O)NC(C)(C)C)c1 | 174 to 178 °C
CC1CN(c2c(Cl)nc3ccc(F)cc3c2C(N)=O)CC(C)N1 (configuration not stated) | 169 to 170 °C
CC(/C=C/c1cscc1-c1ccc2c(c1)C(C)(C)CCC2(C)C)=C\C(=O)O | 192 to 193 °C
CC(C)(C)OC(=O)NCCc1cccc(OCCC2Oc3ccccc3N(Cc3ccccc3Cl)C2=O)c1 (configuration not stated) | 61 to 65 °C
CCc1cc2c(cc1O)CCC1C2CCC2(C)C(=CCOC)CCC12 (configuration not stated) | 133 to 134 °C
C#Cc1cc(Cl)cc2nc(Cc3cc(C(C)(C)C)c(O)c(C(C)(C)C)c3)oc12 | 152 to 155 °C
CCOC(=O)c1nc(-c2ccc(F)cc2)c(CCCl)s1 | 81.5 to 82.5 °C
COc1cc2cc(F)cnc2cc1F | 98 °C
c1ccc2oc(SSCCSSc3nc4ccccc4o3)nc2c1 | 124 to 125 °C
COC(C)(C)CNC(=O)c1cccc(-c2cccc3cc(Cc4cc(F)cc(Cl)c4)sc23)c1 | 89 to 90 °C
CCOCCOc1ccc(COc2ccc3c(c2)C=C(C(=O)O)CCS3(=O)=O)cc1 | 256 to 258 °C
O=C(O)c1cn(CCc2ccc(O)cc2)c2cc(C3CC3)nn2c1=O | 265 to 270 °C
COc1cc2cc(C(=O)NO)sc2cc1OC | 179 to 180 °C
CCCCCN1CCN(O)C1=O | 60 to 61 °C
COc1c(C(C)=O)cnc2c(N)cccc12 | 76 to 77 °C
CC(=O)NCC1OCC(Cc2ccc(Cl)cc2)CO1 (configuration not stated) | 95 °C
O=C(O)CCC(CSc1nc2ccccc2s1)C(=O)O (configuration not stated) | 152 to 154 °C

Other lines, results leading:

melting point | Structure (SMILES)
91 to 94 °C | N#CCc1cc(F)cc(Cc2nc3c(F)c(F)cc(F)c3s2)c1
127 to 128 °C | O=C(CCl)Oc1ccc(OC(=O)CCl)cc1
158 to 160 °C | CC1(Nc2ccccc2)OC(=O)C=C1c1ccccc1 (configuration not stated)
175 °C | CCN1CCc2ccc(Nc3ncc(Cl)c(Nc4ccccc4S(=O)(=O)NC)n3)cc2CC1
158 °C | Cc1ccc(S(=O)(=O)N2CCCC2c2ccncc2)cc1 (racemic)
139 to 141 °C | CC(C)(C)OC(=O)Cc1ccc(CC(N=C(c2ccccc2)c2ccccc2)C(=O)OCc2ccccc2)cc1 (configuration not stated)
192 to 194 °C | CCC1c2ccc(C=O)n2-c2ccc(F)cc2N1S(=O)(=O)c1ccc(O)c(C)c1 (configuration not stated)
108 to 109 °C | O=Cc1nn(-c2ccccc2)c2c1CCC2
126 to 127 °C | O=c1c2ccccc2sc2ccc(SC(F)(F)F)cc12
198 to 199 °C | CCOC(=O)c1ccc(-c2c(Cl)c(CN3C(=O)CCC3=O)nc3sc4c(c23)CCN(C(=O)OCc2ccccc2)C4)cc1
193 to 194 °C | Cc1nc2ccccc2n2c(-c3cc(OCC(O)c4ccccn4)ccc3Cl)nnc12 (configuration not stated)
178 to 184 °C | CC1(C)CN=C2N(C1)c1ccc(C#N)cc1C21OCCCO1
144 to 145 °C | COc1ccc(CO)cc1OCc1nc(-c2ccccc2)oc1C
> 200 °C | CCCn1c(=S)[nH]c2ccc(I)cc2c1=O
154 to 156 °C | Cn1c2ccccc2c(=O)c2cccn21
116 to 117 °C | CCOC(=O)Cc1ccc(-c2nc(COc3ccc(COc4nn(-c5ccccc5)cc4/C=C/c4csc(COC(=O)c5ccccc5)n4)cc3OC)c(C)o2)cc1
> 265 °C | COc1cc2cc3[nH]cc(C#N)c(=O)c3cc2cc1OC
45 °C | CC(=O)Oc1ccc(C#C[Si](C)(C)C)cc1
156 to 158 °C | COc1c([N+](=O)[O-])cc(Br)c2c1C(=CC#N)CC2

melting point | Structure (SMILES)
146 to 147 °C | CCCn1c(=O)cc(Cl)n(Cc2ccc(-c3ccccc3C#N)cc2)c1=O
78 °C | CCc1c(CN(C)S(=O)(=O)c2cccc(Cl)c2)nn(-c2ccc(Cl)cc2Cl)c1-c1ccc(Br)cc1
134 to 135 °C | CNC(=S)NCCCNc1ccccn1
115 °C | CC(=O)OC1CSC(Oc2cccc(-c3ccc(F)nc3)c2)C(OC(C)=O)C1OC(C)=O (configuration not stated)
> 180 °C | Nc1ccc(Oc2ccccc2Oc2ccc(N)c(O)c2)cc1O
298 to 300 °C | O=c1[nH]c2cc(Cl)ccc2c(O)c1-c1ccccc1[N+](=O)[O-]
170 to 172 °C | O=C1OCCN1CCN1CCN(C2Cc3cc(Br)ccc3Sc3ccccc32)CC1 (configuration not stated)
179 to 181 °C | N#CC1C(=O)NC(=O)C(C#N)C12CCN(Cc1ccccc1)CC2 (configuration not stated)
135 to 137 °C | Oc1ccc(C(=C2SCCCS2)c2ccccc2)cc1
118 to 120 °C | O=CN(O)C(COCc1ccccc1)CS(=O)(=O)N1CCN(c2cc(Cl)ncn2)CC1 (configuration not stated)
222 to 225 °C | Cn1cc(C(=O)NCc2ccc(Cl)cc2)c(=O)c2cc(CO)sc21
124 to 125 °C | CC(=O)SCSc1ncn(C(c2ccccc2)(c2ccccc2)c2ccccc2)n1
86 to 87 °C | CCCc1c(OCCCCCOc2ccc3c(=O)cc(C(=O)OC)oc3c2CCC)ccc(C(C)=O)c1O
188 to 190 °C | O=C(C=NNc1cc(Oc2ncccn2)c(Cl)cc1F)C(F)(F)F
148 to 150 °C | CC(=O)N(C(C)=O)c1ccc(C=Cc2ccc3ccccc3n2)cc1
204 °C | Cc1cc(-c2ccnn2-c2ccc(S(N)(=O)=O)c(F)c2C(F)F)ccc1-c1cscn1
55 to 57 °C | Cc1ccccc1NNC(=O)c1ccccc1C(F)(F)F
54 to 57 °C | BrCCCCCOc1ccc2c(c1)OCO2
127 to 128 °C | CCCn1cc(-c2c(-c3ccccc3F)nn3ccncc23)ccc1=O

melting point | Structure (SMILES)
109 to 113 °C | CC1=NN(c2ccc(Cl)cc2)C(=O)C1C(=O)Nc1ccc(F)cc1 (configuration not stated)
197 to 198 °C | O=C1CCCC(=O)N1Nc1ccc([N+](=O)[O-])cc1
118 to 120 °C | NC(=O)CC[C@H](NC(=O)CCc1ccc(OCc2ccccc2)cc1OCc1ccccc1)C(=O)N1CCN(c2ccccc2)CC1
143 to 144 °C | O=C(OCCl)n1c(-c2cscn2)nc2ccccc21
121 to 122 °C | COc1ccc(C=O)c2cccnc12
204 to 206 °C | COc1ccc(-c2nc(C(F)(F)F)c[nH]2)cc1
256 to 261 °C | CCNC(=O)c1ccc2oc(C(=O)C(Cc3ccccc3)NC(=O)Cn3c(-c4ccc(F)cc4)ncc(NC(=O)OCc4ccccc4)c3=O)nc2c1 (configuration not stated)
140 to 143 °C | O=C1N(N2CCCCC2)c2ccccc2C1(Cc1ccncc1)Cc1ccncc1
199 to 200 °C | CC1(C)C(=O)Nc2ccc(F)cc2N1C(=O)N1CCCC1
85 to 87 °C | C#CCN1C(=O)c2ccccc2C1OC (configuration not stated)
56 to 57 °C | Nc1ccc(OCc2nnco2)cc1
107 to 117 °C | Cc1cccc(-c2[nH]c(C(C)C)nc2-c2cccc(-c3ccc(N)cc3)c2)n1
91 to 93 °C | CCCC(=O)NCCc1c[nH]c2ccc3c(c12)CCCO3
61 to 63 °C | CCOC(=O)CNc1ccc(OCC(=O)OCC)c(NC(=O)c2ccc(OCCCCc3ccccc3)cc2)c1
128 to 129 °C | Fc1cccc(CSc2nnc(-c3ccc4c(c3)CCO4)o2)c1
75 to 77 °C | O=S(=O)(Nc1cccc(CCOCc2cccc(-c3ccccc3)n2)c1)C(F)(F)F
156 °C | CC(C)(C)c1cc(C(C)(CC(=O)O)c2ccc(O)c(C(C)(C)C)c2)ccc1O
148 to 150 °C | CC(C)=CC(=O)OC(COc1ccc(C(=O)c2ccccc2)c(O)c1)COc1ccc(C(=O)c2ccccc2)c(O)c1
